In US20170216295A1, “CCR9 ANTAGONIST COMPOUNDS” (Merck Sharp & Dohme Corp., priority 2014, published 2017):

Legend:
[1] = Rat liver microsome clearance; type: in vitro ADME; details: for Rat Microsome In Vitro CLint / CLint scaled at 2 μM: 2 μM, 1 mg/mL rat hepatic microsomes, NADPH; for RLM CL (rat liver microsome hepatic clearance): first value of RLM/HLM cell; for CLint scaled at 2 μM: rat liver microsomes, read-out: Rat Microsome In Vitro CLint
Procedure: Microsomal In-Vitro Clearance:
The test articles (2 μM) were incubated for one hour in 1 mg/mL rat hepatic microsomes with 2 mM NADPH at 37° C. with aliquots removed at t=0, 15, 30 and 60 minutes. Incubations were terminated at the specified times by protein precipitation, and samples were centrifuged. Resultant supernants were analyzed by LC-MS/MS for the amount of incubated compound remaining, and the half life (t1/2) and intrinsic microsomal clearance rate (CLint) of each compound was calculated.

[2] = pH-solubility (high-throughput, buffers); type: physicochemical; details: for Solubility pH 4: pH 4 (Table 6); for Solubility pH 7.4: pH 7.4 (Table 6); for Solubility pH 9: pH 9 (Table 6); for Sol. pH 4: 1000 ug compound in 1 mL pH 4 buffer; for Sol. pH 7: 1000 ug compound in 1 mL pH 7 buffer; for Sol. pH 9: 1000 ug compound in 1 mL pH 9 buffer
Procedure: Solubility of representative acidic triazoles was measured in 3 buffer systems (pH 4, 7.4 and 9) using an in-house high-throughput solubility method. A stock solution of test article was prepared in DMA (20 mg/ml) and spiked into each buffer system (20× dilution) to target 1 mg/ml concentration. The samples were vortexed briefly and equilibrated for 24 hr at RT. Samples were then filtered using 0.22u PVDF membrane filters and analyzed for drug concentration using HPLC.

Rat PK (i.v./p.o.) = type: in vivo; details: for increase in oral bioavailability: compound 39 vs compound 6, compound 42 vs compound 40; for Rat In vivo CL: i.v.; for % F (p.o.) / Oral AUC/D: oral; for % F (p.o.): 6: co-solvent (pH 9), 39, 40, 42: co-solvent + surfactant (pH 9); for Oral AUC/D: formulation as in Table 6; for clearance: Sprague Dawley, plasma, iv, read-out: Rat In vivo CL
Procedure: Sprague Dawley Rats (n=3) were dosed both intravenously and orally with a solution formulation followed by plasma collection at time points providing sufficient coverage of the absorption, distribution, metabolism and excretion phases of the test article. Test article concentrations at each time point were determined by LC-MS detected bioanalytical analysis. Non-compartmental pharmacokinetic analysis of the intravenous bioanalytical data provided area under the curve, clearance, volume of distribution, and terminal half life parameters while similar analysis of plasma samples from animals dosed orally provided area under the curve, bio-available fraction and oral terminal half life pharmacokinetic parameters.
Rats (n of 3) were dosed both intravenously and orally with the various compounds. Plasma samples were collected at time points chosen to provide sufficient coverage of the absorption, distribution, metabolism and excretion phases of the test compound. LC-MS detected bioanalytical analysis was performed on the plasma samples utilizing a standard curve and quality control samples to provide enough precision and accuracy to determine the concentrations test article for plasma from each time point. Non-compartmental pharmacokinetic analysis of the intravenous bioanalytical data provided area under the curve, clearance, volume of distribution, terminal half life parameters while similar analysis of plasma samples from animals dosed orally provided area under the curve, bio-available fraction and oral terminal half life pharmacokinetic parameters (see FIG. 1).

[3] = Rat plasma protein binding (equilibrium dialysis); type: in vitro ADME; details: for Rat Plasma Protein Binding (PPB) Fu: fraction unbound; for fraction unbound at 6 h: read-out: Rat Plasma Protein Binding (PPB) Fu
Procedure: (§1) Plasma and Microsome Protein Binding:
(§2) Protein binding was measured via high throughput equilibrium dialysis with the HTDialysis device fitted with a 12,000 to 14,000 Da molecular weight cutoff membrane. Rat plasma or 1 mg/mL rat hepatic microsomes spiked with test article were dialyzed vs. phosphate buffer for 6 hours. Aliquots were removed from both sides of the membrane and diluted with equal volumes of the opposite matrix. Following protein precipitation and centrifugation, the resultant matrix matched supernatants were analyzed by LC-MS to compare the plasma or microsome dialysate test article signal to the buffer signal. Test article stability was monitored during the course of the assay.

CCR9 receptor = target: T1, CCR9 receptor (Homo sapiens, UniProt P51686); experiment: Calcium mobilization (Ca FLIPR) assay, antagonist mode vs TECK; type: cell-based; details: for LipE: LipE = pIC50-clogD; for IC50: cells expressing CCR9, TECK at EC80 0.01 uM, read-out: CCR9 Ca2+ IC50
T1 sequence (P51686 1-369): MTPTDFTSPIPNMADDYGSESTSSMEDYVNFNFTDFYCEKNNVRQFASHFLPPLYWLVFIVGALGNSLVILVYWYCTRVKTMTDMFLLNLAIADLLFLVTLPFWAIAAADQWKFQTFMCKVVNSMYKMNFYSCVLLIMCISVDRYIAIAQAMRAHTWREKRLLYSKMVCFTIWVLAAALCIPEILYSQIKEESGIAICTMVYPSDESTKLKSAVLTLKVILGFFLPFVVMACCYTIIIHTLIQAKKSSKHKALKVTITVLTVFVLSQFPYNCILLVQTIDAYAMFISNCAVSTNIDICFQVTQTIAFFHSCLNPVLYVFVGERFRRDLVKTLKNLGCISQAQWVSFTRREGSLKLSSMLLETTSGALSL
Procedure: Calcium Mobilization Assay:
Cells expressing CCR9 receptor (MultiSpan, Hayward, Calif.) were seeded in 384-well plates. Ca^2+ assays were conducted after overnight culture in the plates according to the manufacturer's protocol using Screen Quest™ Fluo-8 no wash kit (AAT Bioquest, Sunnyvale, Calif.). Dye loading buffer was added to the cells and incubated for 45 minutes at 37° C. followed by 15 minutes incubation at room temperature. Compounds in the presence of 0.1% DMSO were applied to the cells during calcium flux measurement. Calcium flux was monitored for 90 seconds with compound application after 10 seconds. For antagonist mode, cells were preincubated with the compound at room temperature for 10 minutes before the application of the control agonist TECK (Preprotech, Rocky Hill, N.J.) at EC80 concentration of 0.01 uM obtained from dose-response curves of control agonist.

[4] = Human liver microsome clearance; type: in vitro ADME; details: second value of RLM/HLM cell
Molt-4 cells = experiment: Chemotaxis assay of Molt-4 cells towards TECK; type: cell-based; details: Molt-4 cells in HBSS buffer with 0.1% BSA, TECK at EC80
Procedure: Molt-4 cells were harvested and re-suspended in HBSS buffer with 0.1% BSA or in 100% human serum. Cell suspensions were mixed with compound solutions for 10 min and then seeded onto the upper chamber of the ChemoTX chemotaxis plates with 5 μm pore size polycarbonate membrane from NeuroProbe (Gaithersburg, Md.). EC80 concentration of TECK was applied in the bottom chamber. After 2 hours of incubation at 37° C., the assay was terminated by removing the upper chamber. The cells migrated into the bottom chamber were quantified with CyQUANT solution from Invitrogen (Grand Island, N.Y.).

[5] = Rat microsome protein binding (equilibrium dialysis); type: in vitro ADME; details: rat liver microsomes, 1 mg/mL rat hepatic microsomes, read-out: Rat Microsomal Binding Fu
Procedure: as §1, §2

[6] = In-vitro precipitation time in simulated gastric and intestinal fluids; type: physicochemical; details: oral dosing solution
Procedure: Dosing solutions at 1 mg/mL for rat PK studies were prepared using either a pH+co-solvent approach or pH+cosolvent+surfactant approach. The total amounts of cosolvent and surfactant used in the solution formulations ranged from 5-8% v/v and q.s. with pH 9 phosphate buffer. Solutions were assessed for their potential for in-vivo precipitation using an in-vitro dilution test (1:1, 1:4 and 1:9) in simulated gastric and intestinal fluids.

Cc1nc2nc(OCCO)nn2c(O)c1Cc1ccc(C(C)(C)C)cc1 [Compound 42]
Rat Microsome In Vitro CLint [1]: 373 mL/min/kg
increase in solubility at pH 4 ([2]; compound 42 vs compound 40): ~7 fold
increase in solubility at pH 7.4 ([2]; compound 42 vs compound 40): ~30 fold
Solubility pH 4 [2]: 0.045 mg/ml
Solubility pH 7.4 [2]: 0.61 mg/ml
Solubility pH 9 [2]: 1 mg/ml
Rat In vivo CL as % Hepatic Blood Flow (Rat PK (i.v./p.o.)): 7%
increase in oral bioavailability (Rat PK (i.v./p.o.)): 3 fold
Rat In vivo CL (Rat PK (i.v./p.o.)): 4 mL/min/kg
% F (p.o.) (Rat PK (i.v./p.o.)): 43%
Oral AUC/D (Rat PK (i.v./p.o.)): 1.25 ug · hr/ml/(mg/kg)
Rat Plasma Protein Binding (PPB) Fu [3]: 0.010

Cc1nc2ncnn2c(O)c1Cc1ccc(C(C)(C)C)cc1 [Compound 11]
RLM CL (rat liver microsome hepatic clearance) [1]: 51 mL/min/kg
Sol. pH 4 [2]: 13 ug/mL
Sol. pH 7 [2]: 136 ug/mL
Sol. pH 9 [2]: > 1000 ug/mL
Vd (in words) (Rat PK (i.v./p.o.)): moderate
half-life (in words) (Rat PK (i.v./p.o.)): short
in vivo CL (in words) (Rat PK (i.v./p.o.)): high
oral bioavailability (in words) (Rat PK (i.v./p.o.)): low
LipE (CCR9 receptor): 4.4
HLM CL (human liver microsome hepatic clearance) [4]: 19 mL/min/kg
IC50 (Molt-4 cells; Homo sapiens): 480 nM

COCc1nc2ncnn2c(O)c1Cc1ccc(C(C)(C)C)cc1 [Compound 26]
RLM CL (rat liver microsome hepatic clearance) [1]: 48 mL/min/kg
CLint scaled at 2 μM [1]: 373 mL/min/kg
Sol. pH 4 [2]: 3 ug/mL
Sol. pH 7 [2]: 135 ug/mL
Sol. pH 9 [2]: > 1000 ug/mL
Rat In vivo CL as % Hepatic Blood Flow (Rat PK (i.v./p.o.)): 10%
clearance (Rat PK (i.v./p.o.)): 5 mL/min/kg
IC50 (CCR9 receptor): 8 nM
fraction unbound at 6 h [3]: 0.01
fraction unbound at 6 h [5]: 0.85
HLM CL (human liver microsome hepatic clearance) [4]: 8 mL/min/kg
IC50 (Molt-4 cells; Homo sapiens): 42 nM

CCc1nc2ncnn2c(O)c1Cc1ccc(C(C)(C)C#N)cc1 [Compound 37]
metabolic stability (in words) [1]: increased
RLM CL (rat liver microsome hepatic clearance) [1]: 7 mL/min/kg
CLint scaled at 2 μM [1]: 8 mL/min/kg
Sol. pH 4 [2]: > 1000 ug/mL
Sol. pH 7 [2]: 994 ug/mL
Sol. pH 9 [2]: 982 ug/mL
Rat In vivo CL as % Hepatic Blood Flow (Rat PK (i.v./p.o.)): 3%
Vd (in words) (Rat PK (i.v./p.o.)): increased
exposure (in words) (Rat PK (i.v./p.o.)): highest exposure for the series
half-life (in words) (Rat PK (i.v./p.o.)): extended
in vivo CL (in words) (Rat PK (i.v./p.o.)): lower
clearance (Rat PK (i.v./p.o.)): 1 mL/min/kg
LipE (CCR9 receptor): 5.6
IC50 (CCR9 receptor): 64 nM
fraction unbound at 6 h [3]: 0.011
fraction unbound at 6 h [5]: 0.85
HLM CL (human liver microsome hepatic clearance) [4]: 1 mL/min/kg
IC50 (Molt-4 cells; Homo sapiens): 500 nM

COCc1nc2nc(O)c(Cc3ccc(C(C)(C)C)cc3)c(COC)n2n1 [Compound 38, 6-(4-(tert-butyl)benzyl)-2,7-bis(methoxymethyl)-[1,2,4]triazolo[1,5-a]pyrimidin-5-ol]
metabolic stability (in words) [1]: improved
Rat Microsome In Vitro CLint [1]: 21 mL/min/kg
RLM CL (rat liver microsome hepatic clearance) [1]: 15 mL/min/kg
solubility (in words) [2]: improved
Sol. pH 4 [2]: 132 ug/mL
Sol. pH 7 [2]: 999 ug/mL
Sol. pH 9 [2]: 989 ug/mL
Rat In vivo CL as % Hepatic Blood Flow (Rat PK (i.v./p.o.)): 9%
Vd (in words) (Rat PK (i.v./p.o.)): low
exposure (in words) (Rat PK (i.v./p.o.)): good
in vivo CL (in words) (Rat PK (i.v./p.o.)): relatively low
Rat In vivo CL (Rat PK (i.v./p.o.)): 5 mL/min/kg
LipE (CCR9 receptor): 5.9
IC50 (CCR9 receptor): 13 nM
Rat Plasma Protein Binding (PPB) Fu [3]: 0.010
HLM CL (human liver microsome hepatic clearance) [4]: 5 mL/min/kg
IC50 (Molt-4 cells): 200 nM

CC(C)(C)c1ccc(Cc2c(C3CCC3)nc3ncnn3c2O)cc1 [Compound 27]
RLM CL (rat liver microsome hepatic clearance) [1]: 37 mL/min/kg
CLint scaled at 2 μM [1]: 111 mL/min/kg
Sol. pH 4 [2]: 4 ug/mL
Sol. pH 7 [2]: 58 ug/mL
Sol. pH 9 [2]: 910 ug/mL
Rat In vivo CL as % Hepatic Blood Flow (Rat PK (i.v./p.o.)): 32%
clearance (Rat PK (i.v./p.o.)): 17 mL/min/kg
IC50 (CCR9 receptor): 5 nM
fraction unbound at 6 h [3]: 0.01
fraction unbound at 6 h [5]: 0.255
HLM CL (human liver microsome hepatic clearance) [4]: 13 mL/min/kg
IC50 (Molt-4 cells; Homo sapiens): 20 nM

CC(C)c1nc2ncnn2c(O)c1Cc1ccc(C(C)(C)C)cc1 [Compound 23]
RLM CL (rat liver microsome hepatic clearance) [1]: 44 mL/min/kg
Sol. pH 4 [2]: 2 ug/mL
Sol. pH 7 [2]: 7 ug/mL
Sol. pH 9 [2]: 358 ug/mL
LipE (CCR9 receptor): 4.0
IC50 (CCR9 receptor): 52 nM
HLM CL (human liver microsome hepatic clearance) [4]: 13 mL/min/kg
IC50 (Molt-4 cells; Homo sapiens): 340 nM

COCc1nc2nc(C)c(Cc3ccc(C(C)(C)C)cc3)c(O)n2n1 [Compound 41]
Rat Microsome In Vitro CLint [1]: 171 mL/min/kg
Rat In vivo CL as % Hepatic Blood Flow (Rat PK (i.v./p.o.)): 15%
Rat In vivo CL (Rat PK (i.v./p.o.)): 8 mL/min/kg
Rat Plasma Protein Binding (PPB) Fu [3]: 0.010

Cc1nc2nc(CO)nn2c(O)c1Cc1ccc(C(C)(C)C)cc1 [Compound 39]
Solubility pH 4 [2]: 0.024 mg/ml
Solubility pH 7.4 [2]: 0.26 mg/ml
Solubility pH 9 [2]: 1 mg/ml
increase in oral bioavailability (Rat PK (i.v./p.o.)): approximately 4 fold
% F (p.o.) (Rat PK (i.v./p.o.)): 43%
Oral AUC/D (Rat PK (i.v./p.o.)): 0.32 ug · hr/ml/(mg/kg)
In-vitro Precipitation Time (Visual assessment), SGF ([6]; simulated gastric fluid): SGF: 60 min
In-vitro Precipitation Time (Visual assessment), SIF ([6]; simulated intestinal fluid): SIF: >240 min
